Earlier results in US6346270B1, “Phenytoin therapy” (Alza Corporation, priority 1997, dated 2002).

Structure (SMILES): O=C1NC(=O)C(c2ccccc2)(c2ccccc2)N1 [phenytoin]
- solubility in aqueous fluids: poorly soluble
